Measured values published in patent publication US5514821A, “Ring-labeled retinoids and intermediates, and methods for their synthesis and use” (Ligand Pharmaceuticals Incorporated, priority 1994, dated 1996).

What was measured:
RARs and RXRs [1] = experiment: binding to baculovirus-derived RARs and RXRs (overall finding in words); details: RARα,β,γ and RXRα,β,γ; for binding to RARs and RXRs (in words): saturation binding
Source text: Exp. Stat. Bull., No. 155 (1987).
[…]. […] […].

RARs and RXRs [2] = details: Heyman et al., Cell, 68:397 (1992); cited from earlier work

CC1=C(/C=C/C(C)=C\C=C\C(C)=C\C(=O)O)C(C)(C)CCC1 [9-cis RA, 9-cis retinoic acid]
activity on the retinoid receptors (in words, per Table 1) (RARs and RXRs [1]): active on all six known retinoid receptors
binding to RARs and RXRs (in words) (RARs and RXRs [1]; listed as 9-cis retinoic acid): binds to the RARs and RXRs with high affinity in a saturable and specific manner
binding to RARs and RXRs (in words) (RARs and RXRs [1]; listed as 9-cis-retinoic acid): effectively binds to all six receptors
binding to and modulating gene expression via the RARs and RXRs (RARs and RXRs [2]): capable of binding to and modulating gene expression via the RARs and RXRs

CC1=C(/C=C/C(C)=C/C=C/C(C)=C/C(=O)O)C(C)(C)CCC1 [ATRA, all-trans retinoic acid]
activity on the retinoid receptors (in words, per Table 1) (RARs and RXRs [1]): only active on RARα,β,γ
binding to RARs and RXRs (in words) (RARs and RXRs [1]): only binds to the RARs
